Patent US6734203B2, “Fused imidazolium derivatives” (priority 2000, dated 2004)

assay: Mouse single administration toxicity test; format: in vivo, Balb/C mice; details: 3 mg/kg single intravenous administration, observation period of 2 weeks
Procedure: (Test methods) The compounds of the invention were administered by single intravenous administration to Balb/C mice, and the presence of mortal case during the observation period of 2 weeks was evaluated.

SMILES | presence of mortal case
COCCNC1=C(N(Cc2ccncc2)C(C)=O)C(=O)c2ccccc2C1=O [Example 4, N-[3-(2-methoxyethyl)amino-1,4-dihydro-1,4-dioxo-2-naphthalenyl]-N-(4-pyridylmethyl)acetamide] | Mortal case was not found
COCC[n+]1c2c(n(Cc3ccc(Cl)nc3)c1C)C(=O)c1ccccc1C2=O.[Cl-] [Example 9, 1-[(6-chloro-3-pyridyl)methyl]-3-(2-methoxyethyl)-2-methyl-4,9-dioxo-4,9-dihydro-1H-naphtho[2,3-d]imidazol-3-ium chloride] | Mortal case was not found
COCCN(C(C)=O)C1=C(NCc2cccnc2)C(=O)c2ccccc2C1=O [Example 35, N-(2-methoxyethyl)-N-[3-(3-pyridylmethyl)amino-1,4-dihydro-1,4-dioxo-2-naphthalenyl]acetamide] | Mortal case was not found
COCCN(C(C)=O)C1=C(NCc2ccncc2)C(=O)c2ccccc2C1=O [Example 37, N-(2-methoxyethyl)-N-[3-(4-pyridylmethyl)amino-1,4-dihydro-1,4-dioxo-2-naphthalenyl]acetamide] | Mortal case was not found
COCCn1c2c([n+](CCOC)c1C)C(=O)c1ccccc1C2=O [Example 148, 1,3-bis(2-methoxyethyl)-2-methyl-4,9-dioxo-4,9-dihydro-1H-naphtho[2,3-d]imidazol-3-ium] | Mortal case was not found
COCC[n+]1c2c(n(Cc3cnccn3)c1C)C(=O)c1ccccc1C2=O [Example 154, 3-(2-methoxyethyl)-2-methyl-4,9-dioxo-1-(2-pyrazinylmethyl)-4,9-dihydro-1H-naphtho[2,3-d]imidazol-3-ium] | Mortal case was not found
COCCn1c2c([n+](Cc3cccnc3)c1C)C(=O)c1ccccc1C2=O [Example 180, 1-(2-methoxyethyl)-2-methyl-4,9-dioxo-3-(3-pyridylmethyl)-4,9-dihydro-1H-naphtho[2,3-d]imidazol-3-ium] | Mortal case was not found
COCCn1c2c([n+](Cc3ccncc3)c1C)C(=O)c1ccccc1C2=O.Cl.[Cl-] [Example 182, 1-(2-methoxyethyl)-2-methyl-3-(4-pyridylmethyl)-4,9-dihydro-4,9-dioxo-1H-naphtho[2,3-d]imidazol-3-ium chloride monohydrochloride] | Mortal case was not found
COCC[n+]1c2c(n(Cc3cccnc3Cl)c1C)C(=O)c1ccccc1C2=O [Example 184, 1-[(2-chloro-3-pyridyl)methyl]-3-(2-methoxyethyl)-2-methyl-4,9-dioxo-4,9-dihydro-1H-naphtho[2,3-d]imidazol-3-ium] | Mortal case was not found
COCC[n+]1c2c(n(Cc3ccnc(O)c3)c1C)C(=O)c1ccccc1C2=O [Example 185, 1-[(2-hydroxy-4-pyridyl)methyl]-3-(2-methoxyethyl)-2-methyl-4,9-dioxo-4,9-dihydro-1H-naphtho[2,3-d]imidazol-3-ium] | Mortal case was not found
COCC[n+]1c2c(n(Cc3ccc(OC)nc3)c1C)C(=O)c1ccccc1C2=O [Example 186, 3-(2-methoxyethyl)-1-[(6-methoxy-3-pyridyl)methyl]-2-methyl-4,9-dioxo-4,9-dihydro-1H-naphtho[2,3-d]imidazol-3-ium] | Mortal case was not found
COCC[n+]1c2c(n(Cc3ccnc(Cl)c3)c1C)C(=O)c1ccccc1C2=O [Example 192, 1-[(2-chloro-4-pyridyl)methyl]-3-(2-methoxyethyl)-2-methyl-4,9-dioxo-4,9-dihydro-1H-naphtho[2,3-d]imidazol-3-ium] | Mortal case was not found
COCC[n+]1c2c(n(Cc3ccc(Cl)cc3)c1C)C(=O)c1ccccc1C2=O [Example 197, 1-(4-chlorobenzyl)-3-(2-methoxyethyl)-2-methyl-4,9-dioxo-4,9-dihydro-1H-naphtho[2,3-d]imidazol-3-ium] | Mortal case was not found
Cn1c2c([n+](C)c1CCl)C(=O)c1ccccc1C2=O [KP-1, reference compound] | all of respective 2 cases died
CCn1c2c([n+](CC)c1C)C(=O)c1ccccc1C2=O [KP-3, reference compound] | all of respective 2 cases died
